Test results: patent US11116802B2, “Extract effective in treating drug addiction and preparation method therefor” (GUANGXI JIUFU BIOTECHNOLOGY CO., LTD, priority 2016, dated 2021)

Key:
Sprague-Dawley rats = assay: Physical dependence test: naloxone-precipitated withdrawal response after 7 days of increasing doses; assay type: in vivo; conditions: morphine hydrochloride s.c. twice a day, 5 mg/kg to 60 mg/kg, naloxone 5 mg/kg on day 8, within 30 min
Description: The morphine control group was injected subcutaneously with morphine hydrochloride twice a day. […] The Agriolima agrestis extract group was administered twice a day by oral gavage with increasing dose. The dosage was increased daily from […] to 3.0 g/kg and continuously administered until the 7th day. The negative control group was given the same volume of vegetable oil daily, and the administration time and frequency were the same as those in the Agriolima agrestis extract group. […]

[1] = test system: sleep time of mice with pentobarbital sodium; assay: Sleep time with pentobarbital sodium; assay type: in vivo, KM mice; conditions: estazolam 2 mg/kg; pentobarbital sodium 50 mg/kg 45 min after administration
Description: 40 KM mice (female:male 1:1) were fastened for 12 hrs, but allowed to free access to water. The mice were randomly divided into 4 groups, including a blank control group, a group with low-dose Agriolima agrestis extract (0.4 g/kg) prepared in the present invention, a group with high-dose Agriolima agrestis extract (0.8 g/kg) prepared in the present invention, and a positive control group (estazolam 2 mg/kg). Each group of mice was administered at the above dosage, and the blank control group was administered with the same volume of normal saline. After 45 minutes, each mouse was given 50 mg/kg of pentobarbital sodium, and then the sleep time of each group of mice was recorded (where the time at which the righting reflex disappeared after the administration was taken as the sleep onset time of the mice, and the duration from the time at which the righting reflex disappeared to the time at which the righting reflex returned was taken as the sleep time).

[2] = test system: morphine-induced excitability in mice; assay: Morphine-induced excitability (spontaneous activity recorder); assay type: in vivo, KM mice
Description: 40 KM mice (female:male 1:1) were fastened for 12 hrs, but allowed to free access to water. The mice were randomly divided into 4 groups, including a blank control group, a group with low-dose Agriolima agrestis extract (0.4 g/kg) prepared in the present invention, a group with high-dose Agriolima agrestis extract (0.8 g/kg) prepared in the present invention, and a positive control group (estazolam 2 mg/kg). Each group of mice was placed in a YLS-1A multifunctional small animal spontaneous activity recorder. After 5 minutes of accommodation, the number of spontaneous activities of the mice before administration was measured, and the recording time was 10 min. Each group of mice was administered at the above dosage, and the blank control group was administered by oral gavage with the same volume of normal saline. […] After 15 minutes, the mice were placed in the recorder to observe and record the number of activities of the mice within 10 min.

[3] = test system: amphetamine-induced excitability in mice; assay: Amphetamine-induced excitability (spontaneous activity recorder); assay type: in vivo, KM mice
Description: 40 KM mice (female:male 1:1) were fastened for 12 hrs, but allowed to free access to water. The mice were randomly divided into 4 groups, including a blank control group, a group with low-dose Agriolima agrestis extract (0.4 g/kg) prepared in the present invention, a group with high-dose Agriolima agrestis extract (0.8 g/kg) prepared in the present invention, and a positive control group (estazolam 2 mg/kg). Each group of mice was placed in a YLS-1A multifunctional small animal spontaneous activity recorder. After 5 minutes of accommodation, the number of spontaneous activities of the mice before administration was measured, and the recording time was 10 min.
Each group of mice was administered by oral gavage at the above dosage, and the blank control group was administered with the same volume of normal saline. Each mouse was intraperitoneally injected with amphetamine (8 mg/kg) 30 min after administration. After 15 minutes, the mice were placed in the recorder to observe and record the number of activities of the mice within 10 min.

[4] = Difference in body weight of mice before and after naloxone precipitation; assay type: in vivo, KM mice; conditions: morphine-dependent mice, methadone 20 mg/kg
Description: (§1) 50 KM mice (female:male 1:1) were randomized into 5 groups. Group (1) was a blank control group, and the mice were subcutaneously injected with normal saline. […] Each group was given a different treatment. Group (1), that is, the blank control group, was given the same volume of normal saline. […] Group (3), that is, the positive control group, was given 20 mg/kg of methadone. Groups (4) and (5), that is, groups with low and high doses of Agriolima agrestis extract prepared in the present invention, were given Agriolima agrestis extract at a dosage of 0.4 g/kg and 0.8 g/kg respectively. Each group of mice was administered for consecutive 3 days. The mice were allowed to free access to water and food. 1 hrs after administration on the first and third days of treatment, naloxone (8 mg/kg) was given for precipitation respectively. The jump reaction of the mice in each group within 30 minutes and the changes of body weight before and after precipitation were observed.

morphine-dependent mice = assay: Jumps of morphine-dependent mice upon naloxone-precipitated withdrawal; assay type: in vivo, KM mice; conditions: methadone 20 mg/kg, naloxone 8 mg/kg 1 hr after administration
Description: as §1

[5] = Difference in body weight of rats before and after naloxone precipitation; assay type: in vivo, Sprague-Dawley rats; conditions: morphine-dependent rats, methadone 20 mg/kg, 1 h after precipitation
Description: (§2) 50 Sprague-Dawley rats (female:male 1:1) were randomized into 5 groups. Group (1) was a blank control group, and the rats were subcutaneously injected with normal saline. […] Each group was given a different treatment. Group (1), that is, the blank control group, was given the same volume of normal saline. […] Group (3), that is, the positive control group, was given 20 mg/kg of methadone. Groups (4) and (5), that is, groups with low and high doses of Agriolima agrestis extract prepared in the present invention, were given Agriolima agrestis extract at a dosage of 0.3 g/kg and 0.6 g/kg respectively. Each group of rats was administered for consecutive 3 days. The rats were allowed to free access to water and food. 45 minutes after administration on the first and third days of treatment, naloxone (5 mg/kg) was given for precipitation respectively. The withdrawal response of the rats within 30 minutes and the changes of body weight before and after precipitation (1 h) were observed.

morphine-dependent rats = assay: Naloxone-precipitated withdrawal symptom scores in morphine-dependent rats; assay type: in vivo, Sprague-Dawley rats; conditions: methadone 20 mg/kg, naloxone 5 mg/kg 45 min after administration, response within 30 min
Description: as §2

[6] = baseline of estazolam 2 mg/kg group, recording time 10 min

## CN1CC[C@]23c4c5ccc(O)c4O[C@H]2[C@@H](O)C=C[C@H]3[C@H]1C5.Cl [Morphine, morphine hydrochloride]
Sprague-Dawley rats
  Withdrawal response score: 76.9 ± 14.53

## Clc1ccc2c(c1)C(c1ccccc1)=NCc1nncn1-2 [estazolam]
[1]
  Sleep time of mice: 66.22 ± 13.77 min
[2]; [6]
  Activities before administration: 171.2 ± 38.94 counts/min
[2]; estazolam 2 mg/kg, morphine 10 mg/kg i.p. 30 min after administration, recorded 15 min later within 10 min
  Activities after administration: 67.9 ± 40.31 counts/min
[3]; [6]
  Activities before administration: 183.7 ± 32.99 counts/min
[3]; estazolam 2 mg/kg oral gavage, amphetamine 8 mg/kg i.p. 30 min after administration, recorded 15 min later within 10 min
  Activities after administration: 83.0 ± 40.14 counts/min

## CCC(=O)C(CC(C)N(C)C)(c1ccccc1)c1ccccc1 (centres unmarked) [methadone]
[4]; day 1
  Difference in body weight (before precipitation − after precipitation), Day 1: 0.22 ± 0.19 g
[4]; day 3
  Difference in body weight (before precipitation − after precipitation), Day 3: 0.46 ± 0.23 g
morphine-dependent mice; day 1
  Jumps upon precipitated withdrawal, Day 1: 25.1 ± 6.9 jumps/30 min
morphine-dependent mice; day 3
  Jumps upon precipitated withdrawal, Day 3: 22.9 ± 6.81 jumps/30 min
[5]; day 1
  Difference in body weight (before precipitation − after precipitation), Day 1: 15.6 ± 6.39 g
[5]; day 3
  Difference in body weight (before precipitation − after precipitation), Day 3: 2.6 ± 2.75 g
morphine-dependent rats; day 1 of treatment
  Naloxone-precipitated withdrawal symptom score, Day 1: 49.35 ± 14.41
morphine-dependent rats; day 3 of treatment
  Naloxone-precipitated withdrawal symptom score, Day 3: 35.6 ± 18.73
